From PMC10955247, “In vivo screening for toxicity-modulating drug interactions identifies antagonism that protects against ototoxicity in zebrafish” (Frontiers in Pharmacology, 2024)
Entries after “also recorded” stand apart in the source; their conditions may differ. Structures can show the parent of a compound that is named as a salt.

Tests used:
[1] = test system: zebrafish lateral line hair cells; assay: PEPITA quantification of ototoxicity in YO-PRO-1-stained AB zebrafish larvae; type: in vivo; details: for ototoxic interaction with AZM: co-administration with AZM; for shift toward antagonism in lateral line HC damage as compared to inhibition of the bacterial species on average: interaction with AZM, zebrafish wEOB vs average of E. coli, M. abscessus, S. aureus; for EC75 shift: ototoxin co-administered with azithromycin (AZM) vs administered alone; for ototoxic interaction with clarithromycin (CLM): preliminary experiments; for interaction with neomycin in pairwise screen (wEOB): pairwise screen of NEO against 13 compounds; for HC inhibition: in the absence of AZM, 25 μM CAP, 600 μM CIS; for EC50 shift: ototoxin co-administered with AZM vs alone
Procedure: Therefore, at 5 dpf, larvae were transferred to 12-well plates (5–11 fish per well, 1 well per condition) containing the relevant compound or combination diluted with ICS water, or ICS water alone or high-dose neomycin to serve as controls. Unless otherwise noted, fish were exposed to drug (either an individual compound or a pairwise combination of compounds) for 4 h, as a balance between longer exposure times for accommodating varied kill kinetics and shorter exposure times for technical tractability. Treatments with multiple drugs involved co-administering a prepared solution consisting of both drugs with defined concentrations in ICS water.
Fluorescence microscopy was performed using a Keyence BZ-X800 microscope imaging system, which enables high-throughput semi-automated imaging of 96-well plates.
Each image was masked using automated object detection to include only the fish itself. Manual masks were created on occasion for avoidance of fluorescent contamination, adjusted segmenting for myo6b::gfp fish to remove inner ear HC fluorescence, or exclusion of dead or damaged fish. Each fish was then adjusted for autofluorescence using the fluorophore-free red channel and scored based on the sum of green fluorescence pixel values surrounding 10 of the top 15 brightest pixels in the masked image (Figures 1B–E). These scores were standardized by comparison with the median score of wells containing untreated fish and a score representing no remaining HC fluorescence, both derived for each plate.
Wells where the expected response ( Ra×Rb ) and observed response ( Rab ) were both less than 10% or greater than 90% were excluded from aggregation to reduce the effect of our choice of dose range. The remaining wells were summarized by averaging into a composite interaction score for the combination; we refer to this metric as the “windowed excess over Bliss” (wEOB).

[2] = test system: MET channel; assay: FM1-43 uptake quantification in lateral line HCs (MET channel activity); type: in vivo, Danio rerio; details: AZM 190 µM, BZM 50 µM, 30 min, myo6b::gfp larvae
Procedure: FM1-43 experiments were performed with myo6b::gfp fish, raised to 5 dpf as above. Fish were exposed to drug conditions for 30 min, with 4 µM FM1-43 stain added into the drug treatment solution at minute 29, for a 1-min co-treatment stain exposure followed by simultaneous washout of all drugs and stain in fish water and anesthesia in 675 µM tricaine (selection of staining concentration and exposure duration was informed by ([Hernandez et al., 2006]; [Van Trump et al., 2010]; [Thomas et al., 2013]; [Monroe et al., 2016]; [Hailey et al., 2017]; [Majumder et al., 2017]; [Rocha-Sanchez et al., 2018]; [Stawicki et al., 2019]; [Parkinson and Stawicki, 2021]; [Lee et al., 2022]; [Derudas et al., 2023]; [Schrauwen et al., 2023])). Four to seven fish per condition were transferred to 96-well plates for imaging. Using the Keyence BZ-X800 with GFP filter and a custom filter (605/70 nm emission, 470/40 nm excitation), each fish was imaged with a ×2 objective in brightfield and green and red fluorescence channels as above. FM1-43 uptake was validated using benzamil, a known uptake inhibitor ([Rusch et al., 1994]).

[3] = test system: zebrafish lateral line hair cells; assay: Uptake of TexasRed-conjugated neomycin (NEO-TR) into lateral line HCs; type: in vivo, Danio rerio; details: for accumulation of NEO-TR within lateral line HCs: NEO-TR 50 μM, 30 min, co-administered AZM 190 µM or BZM 50 µM, myo6b::gfp larvae; for Details (uptake inhibitor mechanism): Table S1, by means other than MET channel inhibition (this study)
Text: To further explore the mechanism of macrolide and aminoglycoside antagonism, we fluorescently labeled the aminoglycosides neomycin and gentamicin with Texas Red-X succinimidyl ester to track HC uptake with and without macrolide treatment (Table 1). To avoid breakdown of fluorescent vital dyes over time, we used larvae with the transgene Tg(myo6b:EGFP); myo6b::gfp, that expressed GFP in their HCs. Drug-induced injury was quantified by loss of fluorescence in HCs. Fish were exposed to the fluorescently-labeled drug with or without macrolide co-administration for 30 min, before being washed in fresh ICS water and anesthetized with 675 µM tricaine. Five fish per condition were transferred to 96-well plates for imaging, as per the drug response testing experiments, while another five were euthanized on ice for 20 min, then fixed in 2% paraformaldehyde for 1 hour at room temperature, to prepare for confocal microscopy. Samples were prepared and GFP fluorescence was acquired following the same confocal imaging procedure as described in Section 2.3; TexasRed fluorescence was acquired with a 595 nm laser and 675/75 emission filter.
For the fish transferred to 96-well plates for imaging, fluorescence microscopy was performed using the Keyence BZ-X800. Using the GFP filter and a TexasRed Filter (630/75 nm emission, 560/40 nm excitation), each myo6b::gfp fish was imaged under a ×2 objective to capture the whole organism in brightfield, green, and red fluorescence channels. Each fish was then imaged under a ×40 objective with z-stacking to track the uptake of the fluorescently labeled aminoglycoside into the HCs in the head of the fish.

[4] = test system: zebrafish lateral line hair cells; assay: Lateral line hair cell intracellular calcium imaging and cell death; type: in vivo
Text: For calcium testing, zebrafish expressing HC-specific GCaMP targeted to the inner mitochondrial matrix were crossed with fish expressing a HC specific calcium indicator to create double-transgenic embryos (Tg (myo6b:mitoGCaMP3;myo6b:cytoRGECO), Table 1) with both green fluorescent mitochondrial calcium and red fluorescent cytosolic calcium indicators, then raised as described previously ([McQuate et al., 2023]). Zebrafish embryos were collected from 2-h spawning periods and raised in Petri dishes in embryo medium (EM: 14.97 mM NaCl, 500 μM KCl, 42 µM Na2HPO4, 150 µM KH2PO4, 1 mM CaCl2 dehydrate, 1 mM MgSO4, 0.714 mM NaHCO3, pH 7.2) at a density of 60 larvae per […] dish, in a dark 28.5°C incubator until 5 dpf. Larvae were screened for indicator expression at 4 dpf.
Calcium imaging was performed using an inverted Marianas spinning disk confocal system (Intelligent Imaging Innovations, 3i) with an Evolve 10 MHz EMCCD camera (Photometrics) and a Zeiss C-Apochromat 63x/1.2 numerical aperture water objective. Larvae were 5-6 dpf at the time of imaging. Larvae were first anesthetized in embryo media containing 800 µM tricaine, then stabilized on their sides under a harp, so that posterior neuromasts were exposed to the surrounding media. Imaging was performed at ambient temperature, approximately 25°C. GCaMP fluorescence was acquired with a 488 nm laser and 535/30 emission filter, with an exposure time of 100 ms, and RGECO fluorescence was acquired with a 561 nm laser and 617/73 emission filter and exposure time of 200 ms. Images were taken every 2 minutes as z-stacks through neuromasts in 2 µm steps. Neomycin and azithromycin were dissolved as a 4X stock in EM (described in Section 2.1: Zebrafish Husbandry), then added to the bath to achieve final working concentration after a 10-min baseline. Imaging of neuromasts continued for 50 min. Images were analyzed in ImageJ. Mean fluorescence intensity was measured for ROIs of individual randomly selected HCs (2–3 HCs per NM, see example ROI in Figure 4). For each HC, values were normalized to the average of baseline using Microsoft Excel.

NCC[C@H](O)C(=O)N[C@@H]1C[C@H](N)[C@@H](O[C@H]2O[C@H](CN)[C@@H](O)[C@H](O)[C@H]2O)[C@H](O)[C@H]1O[C@H]1O[C@H](CO)[C@@H](O)[C@H](N)[C@H]1O [Amikacin (AMK), Amikacin sulfate]
ototoxic interaction with AZM [1]: otoprotective antagonistic interactions | shift toward antagonism in lateral line HC damage as compared to inhibition of the bacterial species on average [1]: 31 %pt. | EC75 shift [1]: 8-fold | ototoxic interaction with clarithromycin (CLM) [1]: antagonistic interactions

CC[C@H]1OC(=O)[C@H](C)[C@@H](O[C@H]2C[C@@](C)(OC)[C@@H](O)[C@H](C)O2)[C@H](C)[C@@H](O[C@@H]2O[C@H](C)C[C@H](N(C)C)[C@H]2O)[C@](C)(O)C[C@@H](C)CN(C)[C@H](C)[C@@H](O)[C@]1(C)O [Azithromycin, Azithromycin dihydrate]
RFU remaining on average ([1]; 380µM AZM alone, aggregate dose response, AB and myo6b::gfp fish): Approximately 65% | protection against NEO and GEN ototoxicity by co-administration ([1]; 1 h (acute) and 4 h (extended) treatment, conditions in which monotherapy induced significant damage): significant protection | RFU (residual HC fluorescence) ([1]; AZM 380 μM, NEO 0 μM, 4 h): 48% | protection from CAP-associated damage by co-administration ([1]; capreomycin): significant but less pronounced protection | protection against damage caused by higher doses of CIS by co-administration ([1]; cisplatin): significant but modest protection | interaction with neomycin in pairwise screen (wEOB) [1]: one of the strongest antagonizing compounds | FM1-43 uptake into lateral line HCs ([2]; listed as AZM): does not significantly hinder FM1-43 uptake; also recorded: did not significantly change FM1-43 accumulation in HCs | accumulation of NEO-TR within lateral line HCs ([3]; listed as AZM): inhibition of NEO-TR uptake; also recorded: reduced HC accumulation of NEO-TR | Details (uptake inhibitor mechanism) [3]: Prevents neomycin uptake | HC cell death (observation) ([4]; NEO 50 µM, AZM 190 µM, calcium imaging): low levels of cell death | HC mitochondrial and cytoplasmic calcium response ([4]; NEO 50 µM, AZM 190 µM, mitoGCaMP3, cytoRGECO larvae): occasionally observed increases in mitochondrial calcium | cells that survived ([4]; calcium imaging): 24/25

NC(=NCc1ccccc1)NC(=O)c1nc(Cl)c(N)nc1N [BZM, Benzamil]
interaction with neomycin in pairwise screen (wEOB) [1]: deviate toward antagonism | FM1-43 uptake into lateral line HCs [2]: does significantly reduce FM1-43 uptake; also recorded: significant inhibition of FM1-43 uptake | accumulation of NEO-TR within lateral line HCs [3]: inhibition of NEO-TR uptake

N.N.[Cl][Pt][Cl] [Cisplatin (CIS), Cisplatin]
HC inhibition [1]: 81% | EC50 shift [1]: 1.4 fold | EC75 shift [1]: 1.8-fold | EC75 shift ([1]; listed as CIS): 1.8 fold

CC[C@H]1OC(=O)[C@H](C)[C@@H](O[C@H]2C[C@@](C)(OC)[C@@H](O)[C@H](C)O2)[C@H](C)[C@@H](O[C@@H]2O[C@H](C)C[C@H](N(C)C)[C@H]2O)[C@](C)(O)C[C@@H](C)C(=O)[C@H](C)[C@@H](O)[C@]1(C)O [Erythromycin]
otoprotection against aminoglycoside ototoxicity during co-administration ([1]; macrolide co-administered with aminoglycosides): antagonistic otoprotection broadly against aminoglycoside ototoxicity | Details (uptake inhibitor mechanism) [3]: Prevents neomycin uptake

CNC(C)C1CCC(N)C(OC2C(N)CC(N)C(OC3OCC(C)(O)C(NC)C3O)C2O)O1 (stereo not shown) [Gentamicin (GEN), Gentamicin sulfate]
ototoxic interaction with AZM [1]: otoprotective antagonistic interactions | shift toward antagonism in lateral line HC damage as compared to inhibition of the bacterial species on average [1]: 37 %pt. | EC75 shift [1]: 13-fold | ototoxic interaction with clarithromycin (CLM) [1]: antagonistic interactions

NC[C@H]1O[C@H](O[C@H]2[C@H](O)[C@@H](O[C@H]3O[C@H](CO)[C@@H](O)[C@H](N)[C@H]3O)[C@H](N)C[C@@H]2N)[C@H](O)[C@@H](O)[C@@H]1O [Kanamycin (KAN), Kanamycin sulfate]
ototoxic interaction with AZM [1]: otoprotective antagonistic interactions | shift toward antagonism in lateral line HC damage as compared to inhibition of the bacterial species on average [1]: 45 %pt. | EC75 shift [1]: >16-fold | ototoxic interaction with clarithromycin (CLM) [1]: antagonistic interactions

NC[C@H]1O[C@H](O[C@H]2[C@H](O)[C@@H](O[C@H]3O[C@H](CO)[C@@H](O)[C@H](N)[C@H]3O)[C@H](N)C[C@@H]2N)[C@H](N)C[C@@H]1O [Tobramycin (TOB), Tobramycin]
ototoxic interaction with AZM [1]: otoprotective antagonistic interactions | shift toward antagonism in lateral line HC damage as compared to inhibition of the bacterial species on average [1]: 15 %pt. | EC75 shift [1]: >16-fold

Capreomycin sulfate [Capreomycin (CAP)]
HC inhibition [1]: 90% | EC50 shift [1]: 1.9 fold | EC75 shift [1]: 2.8-fold | EC75 shift ([1]; listed as CAP): 2.8 fold
